From patent publication US20120165319A1, “INHIBITORS OF INTERLEUKIN-1 BETA CONVERTING ENZYME” (VERTEX PHARMACEUTICALS INCORPORATED, priority 1995, published 2012)
Read-outs that look alike come from different tables or passages of the source.

Legend:
ICE = biological target: T1, ICE (Homo sapiens, UniProt P29466); test: Enzyme assay with UV-visible substrate (visible ICE assay, Succinyl-Tyr-Val-Ala-Asp-pNitroanilide); assay type: biochemical
T1 sequence (P29466 120-297 limits assumed): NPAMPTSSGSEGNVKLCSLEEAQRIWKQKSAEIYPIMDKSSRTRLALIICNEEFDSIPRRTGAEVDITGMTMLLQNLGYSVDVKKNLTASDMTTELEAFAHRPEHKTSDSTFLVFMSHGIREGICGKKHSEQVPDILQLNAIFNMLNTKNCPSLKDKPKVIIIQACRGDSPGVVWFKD
T1 sequence (P29466 317-404 limits assumed): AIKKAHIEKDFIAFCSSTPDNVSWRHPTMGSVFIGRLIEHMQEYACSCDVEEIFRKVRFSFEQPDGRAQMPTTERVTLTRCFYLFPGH
Procedure, shortened: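 ICE preincubated with inhibitor in DMSO for 15 min at room temperature, then Suc-Tyr-Val-Ala-Asp-pNA added. pNA release read at 405-603 nm for 20 min at 37 °C, rate from linear fit in mOD/min. Ki and inhibition mode from fits of rates at varying inhibitor concentrations to standard kinetic equations.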

IL-1β, human whole blood = test: Whole blood assay for IL-1β production; assay type: cell-based
Procedure, shortened: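 IL-1β was quantified by ELISA in plasma diluted 1:200. The plasma came from EDTA-anticoagulated human whole blood incubated at 30 °C for 16-18 h with LPS (final 5.0 ng/ml) plus a saline serial dilution of compound. Controls were no-LPS, no-inhibitor and highest-vehicle.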

[1] = In vivo rat clearance assay; settings: plasma, iv, 10-20 mg/kg
Procedure, shortened: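 Rats cannulated a day beforehand received 10–20 mg/kg by intravenous jugular dosing in propylene glycol/saline with 100 mM sodium bicarbonate. Carotid blood was sampled from 0 to 90 min, and plasma was extracted with acetonitrile/0.1% TFA for HPLC quantification. Clearance from non-linear regression pharmacokinetic analysis.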

[2] = Homo sapiens, Table 17, read-out: Whole human blood IC50
[3] = Homo sapiens, * = values obtained upon reassay, read-out: Whole human blood IC50
[4] = * = values obtained upon reassay, read-out: Whole human blood IC50

Compound	IC50 (IL-1β, human whole blood; [3]) [nM]	Ki (ICE; Table 5) [nM]	further results
O=C1C[C@H](NC(=O)[C@@H]2CCCN3C(=O)CC[C@H](NC(=O)c4ccccc4)C(=O)N23)C(OCCc2ccccc2)O1 (mixture of isomers) [Compound 2100k, [1S,9S(2RS,3S)]9-Benzoylamino-6,10-dioxo-1,2,3,4,7,8,9,10-octahydro-N-(2-phenethyloxy-5-oxotetrahydrofuran-3-yl)-6H-pyridazino[1,2-a][1,2]diazepine-1-carboxamide]			Ki (ICE; Table 17): 520 nM; IC50 (IL-1β, human whole blood; [2]): 600 nM
O=C1C[C@H](NC(=O)[C@@H]2CCCN3C(=O)CC[C@H](NC(=O)c4ccccc4)C(=O)N23)C(OCc2ccccc2)O1 (single isomer, unassigned) [Compound 2100n]			Ki (ICE; Table 17): 670 nM; IC50 (IL-1β, human whole blood; [2]): 4000 nM
CS(=O)(=O)N[C@H]1CCC(=O)N2CCC[C@@H](C(=O)N[C@@H](CC(=O)O)C(=O)COC(=O)c3sccc3Cl)N2C1=O [505 e, [3S(1S,9S)]5-(3-Chlorothien-2-oyloxy)-3-(6,10-dioxo-9-methanesulphonylamino-1,2,3,4,7,8,9,10-octahydro-6H-pyridazino[1,2-a][1,2]diazepine-1-carboxamido)-4-oxopentanoic acid]			IC50 (IL-1β, human whole blood; Table 18, read-out: Whole human blood IC5O): 1000 nM
O=C(O)C[C@H](NC(=O)[C@@H]1CCCN2C(=O)CC[C@H](NC(=O)CCc3ccccc3)C(=O)N12)C(=O)CSCc1ccccc1Cl [Compound 125b, [3S(1S,9S)]-3-(6,10-dioxo-1,2,3,4,7,8,9,10-octahydro)-9-(3-phenylpropionyl-amino)-6H-pyridazine[1,2-a][1,2]diazepine-1-carboxamido-5-(2-chlorophenyl-methylthio)-4-oxopentanoic acid]	4500		
COc1cccc2nc(C(=O)[C@H](CC(=O)O)NC(=O)[C@@H]3CCCN4C(=O)CC[C@H](NC(=O)CCc5ccccc5)C(=O)N34)oc12 [Compound 135a]	5000		
O=C(O)C[C@H](NC(=O)[C@@H]1CCCN2C(=O)CC[C@H](NC(=O)CCc3ccccc3)C(=O)N12)C(=O)COC(=O)c1c(Cl)cccc1Cl [Compound 136]	2800		
O=C(O)C[C@H](NC(=O)[C@@H]1CCCN2C(=O)CC[C@H](NC(=O)CCc3ccccc3)C(=O)N12)C(=O)c1ncc(-c2c(Cl)cccc2Cl)o1 [Compound 137]	14000		
CS(=O)(=O)N[C@H]1CCC(=O)N2CCC[C@@H](C(=O)N[C@@H](CC(=O)O)C(=O)COC(=O)c3c(Cl)cccc3Cl)N2C1=O [Compound 138]	2900		
O=C1C[C@H](NC(=O)[C@@H]2CCCN3C(=O)CC[C@H](NC(=O)c4ccccc4)C(=O)N23)C(OCc2ccccc2)O1 (stereo partly drawn) [Compound 213e, [1S,9S(2RS,3S)]9-Benzoylamino-6,10-dioxo-1,2,3,4,7,8,9,10-octahydro-N-(2-benzyloxy-5-oxotetrahydrofuran-3-yl)-6H-pyridazino[1,2-a][1,2]-diazepine-1-carboxamide]	600	130	IC50 (IL-1β, human whole blood; [4]): 400 nM
CC(=O)N[C@H]1CCC(=O)N2CCC[C@@H](C(=O)N[C@@H](CC(=O)O)C(=O)COC(=O)c3c(Cl)cccc3Cl)N2C1=O [Compound 217c, [3S(1S,9S)]3-(9-Acetylamino-6,10-dioxo-1,2,3,4,7,8,9,10-octahydro-6H-pyridazino-[1,2-a][1,2]diazepine-1-carboxamido)-5-(2,6-dichlorobenzoyloxy)-4-oxopentanoic acid]	7000		
O=C(O)C[C@H](NC(=O)[C@@H]1CCCN2C(=O)CC[C@H](NC(=O)OCc3ccccc3)C(=O)N12)C(=O)COC(=O)c1c(Cl)cccc1Cl [Compound 217d, [3S(1S,9S)]3-(9-Benzyloxycarbonylamino-6,10-dioxo-1,2,3,4,7,8,9,10-octahydro-6H-pyridazino[1,2-a][1,2]-diazepine-1-carboxamido)-5-(2,6-dichlorobenzoyloxy)-4-oxopentanoic acid]	4000		
O=C(O)C[C@H](NC(=O)[C@@H]1CCCN2C(=O)CC[C@H](NC(=O)c3ccccc3)C(=O)N12)C(=O)COC(=O)c1c(Cl)cccc1Cl [Compound 217e, [3S(1S,9S)]3-(9-Benzoylamino-6,10-dioxo-1,2,3,4,7,8,9,10-octahydro-6H-pyridazino[1,2-a][1,2]-diazepine-1-carboxamido)-5-(2,6-dichlorobenzoyloxy)-4-oxopentanoic acid]	2000		
O=C(O)C[C@H](NC(=O)[C@@H]1CCCN2C(=O)CC[C@H](NC(=O)c3ccccc3)C(=O)N12)C(=O)c1nc2cc(Cl)cc(Cl)c2o1 [Compound 223e, [3S(1S,9S)]3-(9-Benzoylamino-6,10-dioxo-1,2,3,4,7,8,9,10-octahydro-6H-pyridazino-[1,2-a][1,2]diazepine-1-carboxamido)-4-(5,7-dichlorobenzoxazol-2-yl)-4-oxobutanoic acid]	> 20000	1.6	
O=C(O)C[C@H](NC(=O)[C@@H]1CCCN2C(=O)CC[C@H](NC(=O)c3ccccc3)C(=O)N12)C(=O)CSCc1ccccc1Cl [Compound 226e, [3S(1S,9S)]3-(9-Benzoylamino-6,10-dioxo-1,2,3,4,7,8,9,10-octahydro-6H-pyridazino[1,2-a][1,2]-diazepine-1-carboxamido)-5-(2-chlorophenyl)methylthio-4-oxopentanoic acid]	1800	15	
O=C(O)CC(NC(=O)[C@@H]1CCCN2C(=O)CC[C@H](NC(=O)c3ccccc3)C(=O)N12)C(=O)CF (stereo partly drawn) [Compound 230e, [3RS,(1S,9S)]3-(9-Benzoylamino-6,10-dioxo-1,2,3,4,7,8,9,10-octahydro-6H-pyridazino[1,2-a][1,2]-diazepine-1-carboxamido)-5-fluoro-4-oxopentanoic acid]			IC50 (IL-1β, human whole blood; [4]): 300 nM
N#C[C@H](CC(=O)O)NC(=O)[C@@H]1CCCN2C(=O)CC[C@H](NC(=O)c3ccccc3)C(=O)N12 [Compound 232e, [3S(1S,9S)]9-(Benzoylamino)-3-[6,10-dioxo-1,2,3,4,7,8,9,10-octahydro-6H-pyridazino-[1,2-a][1,2]diazepine-1-carboxamido]-3-cyanopropanoic acid]		1100	clearance [1]: 26 mL/min/kg
O=C[C@H](CC(=O)O)NC(=O)[C@@H]1CCCN2CCC[C@H](NC(=O)c3ccccc3)C(=O)N12 [Compound 246]	10000	12	
CC(C)(C)OC(=O)C[C@@H](C=O)NC(=O)[C@@H]1CCCN2C(=O)CC[C@H](NC(=O)c3ccccc3)C(=O)N12 [Compound 302, [3S(1S,9S)3-(9-Benzoylamino-6,10-dioxo-1,2,3,4,7,8,9,10-octahydro-6H-pyriazino-[1,2-a][1,2]diazapine-1-carboxamido)-amino]-4-oxobutanoic acid tert-butyl ester]	> 20000	4500	
CC(=O)N1C[C@H](NC(=O)c2ccc3ccccc3c2)C(=O)N(CC(=O)N[C@H](C=O)CC(=O)O)c2ccccc21 [Compound 605n]	> 20000	12	
O=C1C[C@H](NC(=O)[C@@H]2CCCN3C(=O)CC[C@H](NC(=O)C(=O)c4ccccc4)C(=O)N23)C(OCc2ccccc2)O1 (stereo partly drawn) [Compound 2001, [1S,9S(2RS,3S)]9-Benzoylformylamino-6,10-dioxo-1,2,3,4,7,8,9,10-octahydro-N-(2(R,S)-benzyloxy-5-oxotetrahydrofuran-3-yl)-6H-pyridazino[1,2-a][1,2]-diazepine-1-carboxamide]	3500	135	
CC(C)OC1OC(=O)C[C@@H]1NC(=O)[C@@H]1CCCN2C(=O)CC[C@H](NC(=O)c3ccccc3)C(=O)N12 (stereo partly drawn) [Compound 2100a, [1S,9S(2RS,3S)]9-Benzoylamino-6,10-dioxo-1,2,3,4,7,8,9,10-octahydro-N-(2-isopropoxy-5-oxo-tetrahydro-furan-3-yl)-6H-pyridazino-[1,2-a][1,2]diazepine-1-carboxamide]	850	100	
CCOC(=O)C[C@H](NC(=O)[C@@H]1CCCN2C(=O)CC[C@H](NC(=O)c3ccccc3)C(=O)N12)C(OCC)OCC [Compound 2100b]	> 20000	8000	
COC(=O)C[C@H](NC(=O)[C@@H]1CCCN2C(=O)CC[C@H](NC(=O)c3ccccc3)C(=O)N12)C(OC)OC [Compound 2100c]	> 20000	7400	
CC(C)OC(=O)C[C@H](NC(=O)[C@@H]1CCCN2C(=O)CC[C@H](NC(=O)c3ccccc3)C(=O)N12)C(OC(C)C)OC(C)C [Compound 2100d]	> 20000	> 100000	
CCOC1OC(=O)C[C@@H]1NC(=O)[C@@H]1CCCN2C(=O)CC[C@H](NC(=O)c3ccccc3)C(=O)N12 (stereo partly drawn) [Compound 2100e, [1S,9S(2RS,3S)]9-Benzoylamino-6,10-dioxo-1,2,3,4,7,8,9,10-octahydro-N-(2-ethoxy-5-oxo-tetrahydro-furan-3-yl)-6H-pyridazino[1,2-a][1,2]-diazepine-1-carboxamide]	600	250	
O=C1C[C@H](NC(=O)[C@@H]2CCCN3C(=O)CC[C@H](NC(=O)c4ccccc4)C(=O)N23)[C@H](OCc2ccccc2)O1 [Compound 2100o, [1S,9S(2R,3S)]9-Benzoylamino-N-(2-benzyloxy-5-oxotetrahydrofuran-3-yl)-6,10-dioxo-1,2,3,4,7,8,9,10-octahydro-6H-pyridazino[1,2-a][1,2]diazepine-1-carboxamide]			Ki (ICE; Table 17): 670 nM; IC50 (IL-1β, human whole blood; [2]): 1500 nM
